# From patent US20060069132A1, “Azolecarboxamide herbicides” (priority 2004, published 2006)
# Tests used:
# giant foxtail = assay: Test B pre-/postemergence herbicide test; format: in vivo, Setaria faberi; conditions: for Foxtail, Giant plant response rating: postemergence, scale 0 (no effect) to 100 (complete control)
# Summary of the method: (§1)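 Evaluation is visual, comparing treated with control plants on a scale where 0 means no effect and 100 means full control. Treatments were preemergence, or postemergence on seedlings 2–18 cm tall, and held 13–15 days in the greenhouse.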
# ducksalad [1] = assay: Test C flooded paddy test; format: in vivo, Heteranthera limosa
# ducksalad [2] = assay: Test B flooded paddy test; format: in vivo, Heteranthera limosa; conditions: 1000 g ai/ha, visual rating, scale 0 to 100 (0 no effect, 100 complete control), 13 to 15 days
# Summary of the method: (§2)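 After treating 2-leaf paddy plants or 2–18 cm postemergence plants (1 to 4 leaves) with formulated chemical, researchers kept them in a greenhouse for 13–15 days. Effects were judged visually versus controls: 0 indicates none, 100 total control.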
# cocklebur = assay: Test B pre-/postemergence herbicide test; format: in vivo, Xanthium strumarium; conditions: for Cocklebur plant response rating: postemergence, scale 0 (no effect) to 100 (complete control)
# Summary of the method: (§3)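 Flooded paddy rice and barnyardgrass were treated at the 2-leaf stage; upland plantings received compound either on sown seed or on 1- to 4-leaf seedlings. All were kept 13–15 days in a greenhouse and scored visually, 0–100, relative to untreated plants.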
# large crabgrass = assay: Test B pre-/postemergence herbicide test; format: in vivo, Digitaria sanguinalis; conditions: for Crabgrass, Large plant response rating: postemergence, scale 0 (no effect) to 100 (complete control)
# Summary of the method: as §1
# barnyardgrass [3] = assay: Test C flooded paddy test; format: in vivo, Echinochloa crus-galli
# Summary of the method: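 After a postemergence application at 1 to 4 leaves (plants 2–18 cm high), or at 2 leaves for barnyardgrass in flooded paddy, plants stayed in the greenhouse for 12 to 14 days. Damage was then judged visually relative to control plants, with 100 indicating complete control.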
# wheat = assay: Test B postemergence herbicide test; format: in vivo, Triticum aestivum; set-up: key to Wheat plant response rating: 0 = no effect, 100 = complete control; conditions: postemergence, visual rating, scale 0 (no effect) to 100 (complete control)
# Summary of the method: (§4)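 Treated at 2-leaf (paddy) or 1–4-leaf, 2–18 cm (postemergence); greenhouse 13–15 d; visual score vs control, 0 none to 100 complete control; dash = not tested.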
# lambsquarters = assay: Test B pre-/postemergence herbicide test; format: in vivo, Chenopodium album; conditions: for Lambsquarters plant response rating: postemergence, scale 0 (no effect) to 100 (complete control)
# Summary of the method: as §1
# rice [4] = assay: Test B flooded paddy test; format: in vivo, Oryza sativa; conditions: 1000 g ai/ha, visual rating, scale 0 to 100 (0 no effect, 100 complete control), 13 to 15 days
# Summary of the method: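 Each value is a visual 0–100 response rating taken against controls 13 to 15 days after treatment in the greenhouse. Plants received formulated chemical postemergence at the 1- to 4-leaf stage or, in flooded paddy, at the 2-leaf stage.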
# barnyardgrass [5] = assay: Test B pre-/postemergence herbicide test; format: in vivo, Echinochloa crus-galli; conditions: for Barnyardgrass plant response rating: postemergence, scale 0 (no effect) to 100 (complete control)
# Summary of the method: as §3
# blackgrass = assay: Test B postemergence herbicide test; format: in vivo, Alopecurus myosuroides; conditions: postemergence, visual rating, scale 0 (no effect) to 100 (complete control)
# Summary of the method: as §2
# rice [6] = assay: Test C flooded paddy test; format: in vivo, Oryza sativa
# Summary of the method: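 Postemergence sprays applied to plants 2 to 18 cm tall (1- to 4-leaf stage); paddy species grown to 2-leaf stage under flooding. After 12 to 14 days in greenhouse, visual rating versus untreated controls on 0–100 scale (0 no effect, 100 complete control).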
# pigweed = assay: Test B pre-/postemergence herbicide test; format: in vivo, Amaranthus retroflexus; conditions: for Pigweed plant response rating: postemergence, scale 0 (no effect) to 100 (complete control)
# Summary of the method: as §1
# wild oat = assay: Test B postemergence herbicide test; format: in vivo, Avena fatua; conditions: postemergence, visual rating, scale 0 (no effect) to 100 (complete control)
# Summary of the method: as §4
# morningglory = assay: Test B pre-/postemergence herbicide test; format: in vivo, Ipomoea coccinea; conditions: for Morningglory plant response rating: postemergence, scale 0 (no effect) to 100 (complete control)
# Summary of the method: as §3
# [7] = test system: smallflower umbrella sedge; assay: Test C flooded paddy test; format: in vivo, Cyperus difformis
# velvetleaf = assay: Test B pre-/postemergence herbicide test; format: in vivo, Abutilon theophrasti; conditions: for Velvetleaf plant response rating: postemergence, scale 0 (no effect) to 100 (complete control)
# Summary of the method: as §1
# corn = assay: Test B pre-/postemergence herbicide test; format: in vivo, Zea mays; conditions: for Corn plant response rating: postemergence, scale 0 (no effect) to 100 (complete control)
# Summary of the method: as §1
# Surinam grass = assay: Test B pre-/postemergence herbicide test; format: in vivo, Urochloa decumbens; conditions: for Surinam Grass plant response rating: postemergence, scale 0 (no effect) to 100 (complete control)
# Summary of the method: as §1
# barnyardgrass [8] = assay: Test B flooded paddy test; format: in vivo, Echinochloa crus-galli; conditions: 1000 g ai/ha, visual rating, scale 0 to 100 (0 no effect, 100 complete control), 13 to 15 days
# Summary of the method: as §2
# rice [9] = assay: Test B pre-/postemergence herbicide test; format: in vivo, Oryza sativa; conditions: 0 = no effect, 100 = complete control, preemergence
# Summary of the method: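 Plants compared with untreated controls 13–15 days post-treatment and given a visual 0–100 injury score. Applications: preemergence to seeds; postemergence at 1- to 4-leaf (2–18 cm); paddy species flooded, 2-leaf stage. Vehicle non-phytotoxic, surfactant included.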
# [10] = test system: small flower umbrella sedge; assay: Test B flooded paddy test; format: in vivo, Cyperus difformis; conditions: 1000 g ai/ha, visual rating, scale 0 to 100 (0 no effect, 100 complete control), 13 to 15 days
# Summary of the method: as §2
# [11] = 125 g ai/ha, 0 = no effect, 100 = complete control, preemergence
# [12] = 500 g ai/ha, visual rating, 0 = no effect, 100 = complete control, preemergence
# [13] = 62 g ai/ha, scale 0 to 100 (0 no effect, 100 complete control)
# [14] = 125 g ai/ha, scale 0 to 100 (0 no effect, 100 complete control)
# [15] = 250 g ai/ha, scale of 0 to 100, 0 is no effect, 100 is complete control
# [16] = 500 g ai/ha, visual rating after 12 to 14 days, scale 0 to 100 (0 no effect, 100 complete control)
smiles,measurement,setting,value
CCc1nc(C(C)(C)C)sc1C(=O)Nc1cccc(C(=O)N(C)C)c1 [Compound 228],"Foxtail, Giant plant response rating (0 to 100 scale)",giant foxtail; [11],70
same,"Plant response rating, Foxtail, Giant",giant foxtail; [12],100
same,"Foxtail, Giant plant response rating","giant foxtail; 125 g ai/ha, visual rating",30
same,"Foxtail, Giant plant response rating","giant foxtail; 500 g ai/ha, visual rating",50
same,Ducksalad plant response rating,ducksalad [1]; [13],80
same,Ducksalad plant response rating,ducksalad [1]; [14],85
same,Ducksalad plant response rating,ducksalad [1]; [15],90
same,"Plant response rating, Ducksalad",ducksalad [1]; [16],90
same,Ducksalad plant response rating,ducksalad [2],90
same,Cocklebur plant response rating (0 to 100 scale),cocklebur; [11],30
same,"Plant response rating, Cocklebur",cocklebur; [12],80
same,Cocklebur plant response rating,"cocklebur; 125 g ai/ha, visual rating",30
same,Cocklebur plant response rating,"cocklebur; 500 g ai/ha, visual rating",80
same,"Crabgrass, Large plant response rating (0 to 100 scale)",large crabgrass; [11],60
same,"Plant response rating, Crabgrass, Large",large crabgrass; [12],100
same,"Crabgrass, Large plant response rating","large crabgrass; 125 g ai/ha, visual rating",20
same,"Crabgrass, Large plant response rating","large crabgrass; 500 g ai/ha, visual rating",40
same,Barnyardgrass plant response rating,barnyardgrass [3]; [13],80
same,Barnyardgrass plant response rating,barnyardgrass [3]; [14],85
same,Barnyardgrass plant response rating,barnyardgrass [3]; [15],95
same,"Plant response rating, Barnyardgrass",barnyardgrass [3]; [16],95
same,Wheat plant response rating,wheat; 125 g ai/ha,30
same,Wheat plant response rating,wheat; 500 g ai/ha,40
same,Lambsquarters plant response rating (0 to 100 scale),lambsquarters; [11],100
same,"Plant response rating, Lambsquarters",lambsquarters; [12],100
same,Lambsquarters plant response rating,"lambsquarters; 125 g ai/ha, visual rating",70
same,Lambsquarters plant response rating,"lambsquarters; 500 g ai/ha, visual rating",80
same,Rice plant response rating,rice [4],90
same,Barnyardgrass plant response rating (0 to 100 scale),barnyardgrass [5]; [11],80
same,"Plant response rating, Barnyardgrass",barnyardgrass [5]; [12],100
same,Barnyardgrass plant response rating,"barnyardgrass [5]; 125 g ai/ha, visual rating",30
same,Barnyardgrass plant response rating,"barnyardgrass [5]; 500 g ai/ha, visual rating",70
same,Blackgrass plant response rating,blackgrass; 125 g ai/ha,30
same,Blackgrass plant response rating,blackgrass; 500 g ai/ha,40
same,Rice plant response rating,rice [6]; [13],75
same,Rice plant response rating,rice [6]; [14],80
same,Rice plant response rating,rice [6]; [15],80
same,"Plant response rating, Rice",rice [6]; [16],85
same,Pigweed plant response rating (0 to 100 scale),pigweed; [11],90
same,"Plant response rating, Pigweed",pigweed; [12],100
same,Pigweed plant response rating,"pigweed; 125 g ai/ha, visual rating",50
same,Pigweed plant response rating,"pigweed; 500 g ai/ha, visual rating",80
same,"Oat, Wild plant response rating",wild oat; 125 g ai/ha,40
same,"Oat, Wild plant response rating",wild oat; 500 g ai/ha,50
same,Morningglory plant response rating (0 to 100 scale),morningglory; [11],10
same,"Plant response rating, Morningglory",morningglory; [12],40
same,Morningglory plant response rating,"morningglory; 125 g ai/ha, visual rating",70
same,Morningglory plant response rating,"morningglory; 500 g ai/ha, visual rating",80
same,"Sedge, Umbrella plant response rating",[7]; [13],80
same,"Sedge, Umbrella plant response rating",[7]; [14],80
same,"Sedge, Umbrella plant response rating",[7]; [15],80
same,"Plant response rating, Sedge, Umbrella",[7]; [16],85
same,Velvetleaf plant response rating (0 to 100 scale),velvetleaf; [11],100
same,"Plant response rating, Velvetleaf",velvetleaf; [12],100
same,Velvetleaf plant response rating,"velvetleaf; 125 g ai/ha, visual rating",60
same,Velvetleaf plant response rating,"velvetleaf; 500 g ai/ha, visual rating",80
same,Corn plant response rating (0 to 100 scale),corn; [11],60
same,"Plant response rating, Corn",corn; [12],80
same,Corn plant response rating,"corn; 125 g ai/ha, visual rating",10
same,Corn plant response rating,"corn; 500 g ai/ha, visual rating",30
same,Surinam Grass plant response rating (0 to 100 scale),Surinam grass; [11],60
same,"Plant response rating, Surinam Grass",Surinam grass; [12],100
same,Surinam Grass plant response rating,"Surinam grass; 125 g ai/ha, visual rating",20
same,Surinam Grass plant response rating,"Surinam grass; 500 g ai/ha, visual rating",40
same,Barnyardgrass plant response rating,barnyardgrass [8],90
same,Rice plant response rating (0 to 100 scale),rice [9]; 125 g ai/ha,80
same,"Plant response rating, Rice","rice [9]; 500 g ai/ha, visual rating",90
same,"Sedge, Umbrella plant response rating",[10],80
